Results reported in patent publication EP4782431A1 (Suzhou Merna Therapeutics Co. Ltd, priority 2023, dated 2025).

Legend:
[1] = system: kinase inhibitor-induced mouse model with hand-foot skin reaction; experiment: kinase inhibitor-induced mouse model with hand-foot skin reaction; assay type: in vivo, ICR mice; conditions: for cytokine IL-1β in the skin tissues of the hind limb toes of the mice: modeling drug oral 14 days, p<0.05; for cytokine IL-1β in the skin tissues of the hind limb toes of the mice / epidermal layer and the stratum corneum in the skin tissues of the hind limb toes / skin of the hind limb toes of the mice (appearance): vs normal control group; for swelling of the hind limb toes of the mice / epidermal layer and the stratum corneum in the skin tissues of the hind limb toes: modeling drug oral; for swelling of the hind limb toes of the mice: 14 days: sorafenib 100 mg/kg, osimertinib 10 mg/kg; for epidermal layer and the stratum corneum in the skin tissues of the hind limb toes: 14 days: sorafenib, osimertinib; for skin of the hind limb toes of the mice (appearance): modeling for 14 days: sorafenib 100 mg/kg, osimertinib 10 mg/kg oral gavage once daily; for expression level of cytokine IL-1β in the skin tissues of the hind limb toes of the mice / infiltration of inflammatory cells / thickening of the epidermal layer and the stratum corneum in the skin tissues: 3% ointment topical or nicotinamide 100 mg/kg oral; for infiltration of inflammatory cells / thickening of the epidermal layer and the stratum corneum in the skin tissues / swelling of the toes caused by the modeling drugs: sorafenib and osimertinib models; for swelling of the toes caused by the modeling drugs: compound of formula (I) 3% ointment topical or nicotinamide 100 mg/kg oral, once daily 16 days
Source text: After adaptive feeding for 7 days, SPF-grade ICR mice (male, 5-6 weeks old, with a body weight of approximately 35 g) were randomly divided into groups, including a blank control group (6 mice), a sorafenib modeling group (6 mice), an osimertinib modeling group (6 mice), a sorafenib + compound of formula (I) group (6 mice), an osimertinib + compound of formula (I) group (6 mice), a sorafenib + nicotinamide group (6 mice), and an osimertinib + nicotinamide group (6 mice). The groups were respectively administered corresponding modeling drugs by oral gavage (sorafenib at 100 mg/kg and osimertinib at 10 mg/kg) once daily; and the blank control group was administered an equivalent volume of normal saline. After administration with the chemotherapeutic drugs for 2 weeks, the ointments containing the compound of formula (I) (at a compound content of 3%) used in Example 10 were respectively applied topically in the groups, or nicotinamide was orally administered (100 mg/kg) once daily continuously for 16 days.
(§1) Measurement of the degree of swelling of toes: The degree of swelling of hind limb toes of the mice was measured using a toe swelling tester (KW-7C, Nanjing Calvin Biotechnology Co., Ltd.) before administration with the modeling drugs, after administration with the modeling drugs for 2 weeks, and before sacrifice, respectively. Before measurement, ankle joints of hind feet of the mice were marked at same positions before administration, after administration for 2 weeks, and before sacrifice. During measurement, water was properly located at the same level as the marked positions, and numerical values were recorded after becoming stable.
(§2) Pathological staining of skin tissues: Skin tissue samples were selected from hind limb toes of the mice and placed in 4% paraformaldehyde for fixation at room temperature for 4 hours. Then, the tissues were taken out and rinsed with running water for several hours. The samples were subjected to dehydration treatment with 70%, 80%, and 90% ethanol solutions, followed by treatment with a mixed solution of equal amounts of absolute alcohol and xylene for 15 minutes, and then permeabilized twice with a xylene solution for 15 minutes each time until the samples became transparent. The samples were placed in a mixture of half xylene and half paraffin for soaking for 15 minutes, and then, paraffin I and paraffin II were added for wax penetration for one hour, respectively. After embedding with paraffin, the samples were sectioned, baked, dewaxed, and hydrated. Then, the hydrated sections were placed in a hematoxylin solution (ZSGB-BIO, article No. 23041001) for staining for 3 minutes, and a differentiation solution of hydrochloric acid in ethanol was added for differentiation for 15 seconds. After rinsing with water, a Scott bluing solution (Servicebio, article No. 20230801) was added for bluing for 15 seconds. After rinsing with running water, the sections were stained with an eosin solution (Solarbio, article No. 33535) for 3 minutes, rinsed with running water, dehydrated, permeabilized, sealed, and inspected under a microscope.
(§3) Immunohistochemical staining: After baking, dewaxing, and hydration, paraffin sections of skin tissues of hind limb toes of the mice were subjected to antigen retrieval using a 0.2 M citric acid buffer solution (containing 1.534 g of citric acid, 3.1 g of sodium citrate, and 100 mL of distilled water, pH 4.7). Endogenous […] was removed using 3% hydrogen peroxide (Shandong Annjet High-Tech Disinfection Technology Co., Ltd., article No. 20290902), and the sections were incubated at room temperature for 10 minutes and then fully rinsed with a PBS buffer solution (containing 8 g of NaCl, 0.2 g of KCl, 1.44 g of Na2HPO4, and 1 M HCl, pH 7.4). The sections were permeabilized with 0.5% Triton-X-100 (AmyJet Scientific, article No. A-CSH436-100 mL), respectively permeabilized with mouse anti-IL-1β and rabbit IL-8 for 10 minutes, and not permeabilized with rabbit anti-IL-6. […]

HaCaT cells = experiment: m6A methylation level of drug-treated HaCaT keratinocytes by nanopore sequencing; assay type: cell-based, human; conditions: 50 nM drug, 24 hours, vs blank control group
Protocol: 1*10^8 HaCaT cells were seeded in culture dishes, into which 50 nM drugs (including sorafenib, capecitabine, docetaxel, and osimertinib) were added, respectively. The cells were cultured in an incubator containing 5% CO2 at 37°C for 24 hours and washed with PBS after culture media were removed. Centrifugation was performed, the supernatant was discarded, and then, 400 µL of an RLT cell lysis buffer (QIAGEN, Cat.#79216) was added. A portion of samples were selected, into which 400 µL of 70% ethanol was added. The mixture was evenly stirred and then transferred to an RNeasy mini column, and RNA was extracted using an RNeasy mini kit (QIAGEN, Cat.#74104). 2 µL of an RNA sample was selected and dissolved in 98 µL of a 10 mM Tris-HCl buffer solution, and the absorbance at 260 nm was measured using a Nanodrop (Thermo Fisher Scientific) to determine the RNA concentration.
40 µg of an RNA sample was selected for enrichment of mRNA (PolyA+RNA) using an NEBNext Poly(A) mRNA magnetic isolation module (NEB, Cat.#E7490), and then, a 3' end of the above enriched mRNA (PolyA+RNA) molecule was ligated with reverse transcription adapter RTA using a direct RNA sequencing kit (Oxford Nanopore Technologies, Cat.#SQK-RNA002). A reverse transcription reaction was performed with the mRNA (PolyA+RNA) molecule as a template to synthesize a complementary strand, a terminal end of the reverse transcription adapter RTA was ligated with a sequencing adapter (RNA adapter) to form a final sequencing library, and quantitative detection was performed using a Qubit™ dsDNA HS assay kit (Invitrogen, Cat.#LOT2133187).
After quality inspection of the library, the prepared sequencing library was loaded onto a PromethION flow cell chip (Oxford Nanopore Technologies, Cat.#FLO-MIN106D), and placed in a PromethION sequencer (Oxford Nanopore Technologies) for sequencing by selecting a matched sequencing mode. Basecalling was performed on sequencing data through guppy, and m6A methylation analysis was performed on original fast5 data.

[2] = system: chemotherapeutic drug-induced mouse model with hand-foot syndrome; experiment: chemotherapeutic drug-induced mouse model with hand-foot syndrome; assay type: in vivo, ICR mice; conditions: for infiltration of inflammatory cells / thickening of the epidermal layer and the stratum corneum in the skin tissues / swelling of the toes caused by the modeling drugs: capecitabine and docetaxel models; for infiltration of inflammatory cells / thickening of the epidermal layer and the stratum corneum in the skin tissues / expression level of cytokine IL-8 in the skin tissues of the hind limb toes of the mice / expression level of cytokine IL-6 in the skin tissues of the hind limb toes of the mice: 3% ointment topical or nicotinamide 100 mg/kg oral; for swelling of the toes caused by the modeling drugs: compound of formula (I) 3% ointment topical or nicotinamide 100 mg/kg oral, once daily 16 days; for expression level of cytokine IL-8 in the skin tissues of the hind limb toes of the mice: capecitabine model; for expression level of cytokine IL-6 in the skin tissues of the hind limb toes of the mice: docetaxel model
Source text: After adaptive feeding for 7 days, SPF-grade ICR mice (male, 5-6 weeks old, with a body weight of approximately 35 g) were randomly divided into groups, including a blank control group (6 mice), a capecitabine modeling group (6 mice), a docetaxel modeling group (6 mice), a capecitabine + compound of formula (I) group (6 mice), a docetaxel + compound of formula (I) group (6 mice), a capecitabine + nicotinamide group (6 mice), and a docetaxel + nicotinamide group (6 mice). The groups were respectively administered corresponding modeling drugs by oral gavage (capecitabine at 200 mg/kg and docetaxel at 25 mg/kg) once daily; and the blank control group was administered an equivalent volume of normal saline. After administration with the chemotherapeutic drugs for 2 weeks, the ointments containing the compound of formula (I) (at a compound content of 3%) used in Example 10 were respectively applied topically in the groups, or nicotinamide was orally administered (100 mg/kg) once daily continuously for 16 days.
as §1, §2, §3

Row | SMILES | cytokine IL-1β in the skin tissues of the hind limb toes of the mice [1] | swelling of the hind limb toes of the mice [1] | epidermal layer and the stratum corneum in the skin tissues of the hind limb toes [1] | skin of the hind limb toes of the mice (appearance) [1] | m6A methylation levels of HaCaT cells higher than that of the control group (HaCaT cells) | infiltration of inflammatory cells [2] | thickening of the epidermal layer and the stratum corneum in the skin tissues [2] | swelling of the toes caused by the modeling drugs [2] | expression level of cytokine IL-8 in the skin tissues of the hind limb toes of the mice [2] | expression level of cytokine IL-6 in the skin tissues of the hind limb toes of the mice [2] | expression level of cytokine IL-1β in the skin tissues of the hind limb toes of the mice ([1]; osimertinib model) | infiltration of inflammatory cells [1] | thickening of the epidermal layer and the stratum corneum in the skin tissues [1] | swelling of the toes caused by the modeling drugs [1] | expression level of cytokine IL-1β in the skin tissues of the hind limb toes of the mice ([1]; sorafenib model)
1 | CNC(=O)c1cc(Oc2ccc(NC(=O)Nc3ccc(Cl)c(C(F)(F)F)c3)cc2)ccn1 [Sorafenib, sorafenib] | significantly increased | significant swelling of the hind limb toes of the mice was caused | significantly thickened | obvious erythema and rhagades | 5.05 fold | – | – | – | – | – | – | – | – | – | –
2 | C=CC(=O)Nc1cc(Nc2nccc(-c3cn(C)c4ccccc34)n2)c(OC)cc1N(C)CCN(C)C [Osimertinib, osimertinib] | significantly increased | significant swelling of the hind limb toes of the mice was caused | significantly thickened | obvious erythema and rhagades | 5.13 fold | – | – | – | – | – | – | – | – | – | –
3 | NC(=O)c1cccnc1 [Nicotinamide, nicotinamide] | – | – | – | – | – | infiltration of inflammatory cells still observed | mildly alleviated | not observed that oral administration of nicotinamide at 100 mg/kg significantly alleviated the swelling | didn't have a significant impact | didn't have a significant impact | didn't have a significant impact | infiltration of inflammatory cells still observed | didn't significantly alleviate | not observed that oral administration of the nicotinamide at 100 mg/kg significantly alleviated the swelling | didn't have a significant impact
4 | NC(=O)[C@H]1CCCc2c1[nH]c1ccc(Cl)cc21 [Compound of formula (I), (S)-6-chloro-2,3,4,9-tetrahydro-1H-carbazole-carboxamide] | – | – | – | – | – | no infiltration of inflammatory cells observed | effectively alleviate | significantly alleviate | significantly decrease | significantly decrease | significantly decrease | no infiltration of inflammatory cells observed | effectively alleviate | effectively alleviate | significantly decrease
